# According to patent publication US20260262643A1, “HERBICIDAL BENZOXAZINES” (FMC CORPORATION, priority 2022, published 2026):
# Experiments:
# kochia [1] = assay: Test C postemergence; format: in vivo, Bassia scoparia; details: postemergence, 10 days
# How it was run: (§1)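 Test material, in non-phytotoxic solvent with surfactant, was sprayed on the soil directly after seeding (preemergence) or on young plants of 2–10 cm with one to two leaves (postemergence). Greenhouse, 10 days; 0–100 visual control scale.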
# goosegrass [2] = assay: Test C postemergence; format: in vivo, Eleusine indica; details: postemergence, 10 days
# Text: (§2) Seeds of plant species selected from barnyardgrass (Echinochloa crusgalli), blackgrass (Alopecurus myosuroides), corn (Zea mays), foxtail, giant (giant foxtail, Setaria faberi), green foxtail (Setaria viridis), goosegrass (Eleusine indica), kochia (Bassia scoparia), oat, wild (wild oat, Avena fatua), pigweed, palmer (palmer amaranth, palmer pigweed, Amaranthus palmeri), Pigweed, Redroot (redroot pigweed, Amaranthus retroflexus), ragweed (common ragweed, Ambrosia artemisiifolia), ryegrass, Italian ([…] ryegrass, Lolium multiflorum), soybean (Glycine max), and wheat (Triticum aestivum) were planted into a blend of loam soil and sand and treated preemergence with a directed soil spray using test chemicals formulated in a non-phytotoxic solvent mixture which included a surfactant. At the same time, plants selected from these crops and weed species and also galium (catchweed bedstraw, Galium aparine) and horseweed (Erigeron canadensis) were planted in pots containing the same blend of loam soil and sand and treated with postemergence applications of test chemicals formulated in the same manner. Plants ranged in height from 2 to 10 cm and were in the one- to two-leaf stage for the postemergence treatment. Treated plants and untreated controls were maintained in a greenhouse for 10 days, after which time all treated plants were compared to untreated controls and visually evaluated for injury. Plant response ratings, summarized in Table C, are based on a 0 to 100 scale where 0 is no effect and 100 is complete control. A dash (-) response means no test result.
# soybean [3] = assay: Test C preemergence; format: in vivo, Glycine max; details: preemergence, 0 to 100 scale (0 no effect, 100 complete control)
# How it was run: as §1
# goosegrass [4] = assay: Test C preemergence; format: in vivo, Eleusine indica; details: preemergence, 0 to 100 scale (0 no effect, 100 complete control)
# Text: as §2
# ragweed [5] = assay: Test C preemergence; format: in vivo, Ambrosia artemisiifolia; details: preemergence, 0 to 100 scale (0 no effect, 100 complete control)
# How it was run: as §1
# oat, wild [6] = assay: Test C postemergence; format: in vivo, Avena fatua; details: postemergence, 10 days
# How it was run: as §1
# corn [7] = assay: Test C preemergence; format: in vivo, Zea mays; details: preemergence, 0 to 100 scale (0 no effect, 100 complete control)
# How it was run: as §1
# pigweed, palmer [8] = assay: Test C postemergence; format: in vivo, Amaranthus palmeri; details: postemergence, 10 days
# How it was run: as §1
# kochia [9] = assay: Test C preemergence; format: in vivo, Bassia scoparia; details: preemergence, 0 to 100 scale (0 no effect, 100 complete control)
# How it was run: as §1
# foxtail, giant [10] = assay: Test C preemergence; format: in vivo, Setaria faberi; details: preemergence, 0 to 100 scale (0 no effect, 100 complete control)
# How it was run: as §1
# wheat [11] = assay: Test C preemergence; format: in vivo, Triticum aestivum; details: preemergence, 0 to 100 scale (0 no effect, 100 complete control)
# How it was run: as §1
# galium = assay: Test C postemergence; format: in vivo, Galium aparine; details: postemergence, 10 days
# How it was run: as §1
# ragweed [12] = assay: Test C postemergence; format: in vivo, Ambrosia artemisiifolia; details: postemergence, 10 days
# How it was run: as §1
# wheat [13] = assay: Test C postemergence; format: in vivo, Triticum aestivum; details: postemergence, 10 days
# How it was run: as §1
# sedge, umbrella = assay: Test D flooded paddy test; format: in vivo, Cyperus difformis; details: 250 g ai/ha, applied to paddy water, visual rating after 13 to 14 days, scale 0 to 100 (0 no effect, 100 complete control)
# How it was run: (§3)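 Plants grown to the 2-leaf stage; pots flooded to 3 cm above soil at treatment and held at that depth throughout. Test compounds applied directly to the paddy water. After 13 to 14 days in a greenhouse, response was rated visually versus controls on a 0 (no effect) to 100 (complete control) scale.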
# blackgrass [14] = assay: Test C preemergence; format: in vivo, Alopecurus myosuroides; details: preemergence, 0 to 100 scale (0 no effect, 100 complete control)
# How it was run: as §1
# ryegrass, Italian [15] = assay: Test C postemergence; format: in vivo, Lolium multiflorum; details: postemergence, 10 days
# How it was run: as §1
# foxtail, giant [16] = assay: Test C postemergence; format: in vivo, Setaria faberi; details: postemergence, 10 days
# How it was run: as §1
# ducksalad = assay: Test D flooded paddy test; format: in vivo, Heteranthera limosa; details: 250 g ai/ha, applied to paddy water, visual rating after 13 to 14 days, scale 0 to 100 (0 no effect, 100 complete control)
# How it was run: as §3
# corn [17] = assay: Test C postemergence; format: in vivo, Zea mays; details: postemergence, 10 days
# How it was run: as §1
# rice = assay: Test D flooded paddy test; format: in vivo, Oryza sativa; details: 250 g ai/ha, applied to paddy water, visual rating after 13 to 14 days, scale 0 to 100 (0 no effect, 100 complete control)
# How it was run: as §3
# soybean [18] = assay: Test C postemergence; format: in vivo, Glycine max; details: postemergence, 10 days
# How it was run: as §1
# ryegrass, Italian [19] = assay: Test C preemergence; format: in vivo, Lolium multiflorum; details: preemergence, 0 to 100 scale (0 no effect, 100 complete control)
# How it was run: as §1
# pigweed, palmer [20] = assay: Test C preemergence; format: in vivo, Amaranthus palmeri; details: preemergence, 0 to 100 scale (0 no effect, 100 complete control)
# How it was run: as §1
# blackgrass [21] = assay: Test C postemergence; format: in vivo, Alopecurus myosuroides; details: postemergence, 10 days
# How it was run: as §1
# barnyardgrass = assay: Test D flooded paddy test; format: in vivo, Echinochloa crus-galli; details: 250 g ai/ha, applied to paddy water, visual rating after 13 to 14 days, scale 0 to 100 (0 no effect, 100 complete control)
# How it was run: as §3
# oat, wild [22] = assay: Test C preemergence; format: in vivo, Avena fatua; details: preemergence, 0 to 100 scale (0 no effect, 100 complete control)
# How it was run: as §1
# [23] = 125 g ai/ha, 0 to 100 scale, 0 no effect, 100 complete control
# [24] = 500 g ai/ha, 0 to 100 scale (0 no effect, 100 complete control)
structure (smiles),measurement,setting,value
Cc1cccc2c1O[C@@H](C)CN2C(=O)c1cccc(-n2cnc(-c3ccccc3)n2)c1 [Compound 283],"Plant response rating, Kochia",kochia [1]; [23],70
same,"Plant response rating, Kochia",kochia [1]; [24],80
same,"Plant response rating, Goosegrass",goosegrass [2]; [23],10
same,"Plant response rating, Goosegrass",goosegrass [2]; [24],40
same,Soybean plant response rating,soybean [3]; 500 g ai/ha,30
same,Soybean plant response rating,"soybean [3]; Test C, 125 g ai/ha",0
same,Goosegrass plant response rating,goosegrass [4]; 500 g ai/ha,100
same,Goosegrass plant response rating,"goosegrass [4]; Test C, 125 g ai/ha",80
same,Ragweed plant response rating,ragweed [5]; 500 g ai/ha,0
same,Ragweed plant response rating,"ragweed [5]; Test C, 125 g ai/ha",0
same,"Plant response rating, Oat, Wild","oat, wild [6]; [23]",10
same,"Plant response rating, Oat, Wild","oat, wild [6]; [24]",10
same,Corn plant response rating,corn [7]; 500 g ai/ha,0
same,Corn plant response rating,"corn [7]; Test C, 125 g ai/ha",0
same,"Plant response rating, Pigweed, Palmer","pigweed, palmer [8]; [23]",60
same,"Plant response rating, Pigweed, Palmer","pigweed, palmer [8]; [24]",80
same,Kochia plant response rating,kochia [9]; 500 g ai/ha,50
same,Kochia plant response rating,"kochia [9]; Test C, 125 g ai/ha",20
same,"Foxtail, Giant plant response rating","foxtail, giant [10]; 500 g ai/ha",90
same,"Foxtail, Giant plant response rating","foxtail, giant [10]; Test C, 125 g ai/ha",60
same,Wheat plant response rating,wheat [11]; 500 g ai/ha,10
same,Wheat plant response rating,"wheat [11]; Test C, 125 g ai/ha",0
same,"Plant response rating, Galium",galium; [23],50
same,"Plant response rating, Galium",galium; [24],80
same,"Plant response rating, Ragweed",ragweed [12]; [23],10
same,"Plant response rating, Ragweed",ragweed [12]; [24],50
same,"Plant response rating, Wheat",wheat [13]; [23],10
same,"Plant response rating, Wheat",wheat [13]; [24],10
same,"Plant response rating, Sedge, Umbrella (Flood)","sedge, umbrella",0
same,Blackgrass plant response rating,blackgrass [14]; 500 g ai/ha,40
same,Blackgrass plant response rating,"blackgrass [14]; Test C, 125 g ai/ha",40
same,"Plant response rating, Ryegrass, Italian","ryegrass, Italian [15]; [23]",20
same,"Plant response rating, Ryegrass, Italian","ryegrass, Italian [15]; [24]",50
same,"Plant response rating, Foxtail, Giant","foxtail, giant [16]; [23]",20
same,"Plant response rating, Foxtail, Giant","foxtail, giant [16]; [24]",90
same,"Plant response rating, Ducksalad (Flood)",ducksalad,0
same,"Plant response rating, Corn",corn [17]; [23],20
same,"Plant response rating, Corn",corn [17]; [24],20
same,"Plant response rating, Rice (Flood)",rice,0
same,"Plant response rating, Soybean",soybean [18]; [23],90
same,"Plant response rating, Soybean",soybean [18]; [24],90
same,"Ryegrass, Italian plant response rating","ryegrass, Italian [19]; 500 g ai/ha",100
same,"Ryegrass, Italian plant response rating","ryegrass, Italian [19]; Test C, 125 g ai/ha",70
same,"Pigweed, Palmer plant response rating","pigweed, palmer [20]; 500 g ai/ha",100
same,"Pigweed, Palmer plant response rating","pigweed, palmer [20]; Test C, 125 g ai/ha",30
same,"Plant response rating, Blackgrass",blackgrass [21]; [23],10
same,"Plant response rating, Blackgrass",blackgrass [21]; [24],40
same,"Plant response rating, Barnyardgrass (Flood)",barnyardgrass,0
same,"Oat, Wild plant response rating","oat, wild [22]; 500 g ai/ha",10
same,"Oat, Wild plant response rating","oat, wild [22]; Test C, 125 g ai/ha",20
